Reference: article PMC11149885 (PLOS ONE, 2024)
Where “and” joins values, the source holds several entries; their conditions need not be identical. Equal values may be shown once. Blank lines part the entries; values can stand above or below the compound they belong to.

Tests used:
VEGFR2 [1] = molecular target: T1, VEGFR2 (Homo sapiens, UniProt P35968); assay: HotSpot kinase screen; assay type: biochemical; details: 10μM ATP
T1 construct: purchased Millipore Corporation (Dundee, Scotland) or Reaction Biology Corporation (contract assay)
T1 sequence (P35968 20-1356): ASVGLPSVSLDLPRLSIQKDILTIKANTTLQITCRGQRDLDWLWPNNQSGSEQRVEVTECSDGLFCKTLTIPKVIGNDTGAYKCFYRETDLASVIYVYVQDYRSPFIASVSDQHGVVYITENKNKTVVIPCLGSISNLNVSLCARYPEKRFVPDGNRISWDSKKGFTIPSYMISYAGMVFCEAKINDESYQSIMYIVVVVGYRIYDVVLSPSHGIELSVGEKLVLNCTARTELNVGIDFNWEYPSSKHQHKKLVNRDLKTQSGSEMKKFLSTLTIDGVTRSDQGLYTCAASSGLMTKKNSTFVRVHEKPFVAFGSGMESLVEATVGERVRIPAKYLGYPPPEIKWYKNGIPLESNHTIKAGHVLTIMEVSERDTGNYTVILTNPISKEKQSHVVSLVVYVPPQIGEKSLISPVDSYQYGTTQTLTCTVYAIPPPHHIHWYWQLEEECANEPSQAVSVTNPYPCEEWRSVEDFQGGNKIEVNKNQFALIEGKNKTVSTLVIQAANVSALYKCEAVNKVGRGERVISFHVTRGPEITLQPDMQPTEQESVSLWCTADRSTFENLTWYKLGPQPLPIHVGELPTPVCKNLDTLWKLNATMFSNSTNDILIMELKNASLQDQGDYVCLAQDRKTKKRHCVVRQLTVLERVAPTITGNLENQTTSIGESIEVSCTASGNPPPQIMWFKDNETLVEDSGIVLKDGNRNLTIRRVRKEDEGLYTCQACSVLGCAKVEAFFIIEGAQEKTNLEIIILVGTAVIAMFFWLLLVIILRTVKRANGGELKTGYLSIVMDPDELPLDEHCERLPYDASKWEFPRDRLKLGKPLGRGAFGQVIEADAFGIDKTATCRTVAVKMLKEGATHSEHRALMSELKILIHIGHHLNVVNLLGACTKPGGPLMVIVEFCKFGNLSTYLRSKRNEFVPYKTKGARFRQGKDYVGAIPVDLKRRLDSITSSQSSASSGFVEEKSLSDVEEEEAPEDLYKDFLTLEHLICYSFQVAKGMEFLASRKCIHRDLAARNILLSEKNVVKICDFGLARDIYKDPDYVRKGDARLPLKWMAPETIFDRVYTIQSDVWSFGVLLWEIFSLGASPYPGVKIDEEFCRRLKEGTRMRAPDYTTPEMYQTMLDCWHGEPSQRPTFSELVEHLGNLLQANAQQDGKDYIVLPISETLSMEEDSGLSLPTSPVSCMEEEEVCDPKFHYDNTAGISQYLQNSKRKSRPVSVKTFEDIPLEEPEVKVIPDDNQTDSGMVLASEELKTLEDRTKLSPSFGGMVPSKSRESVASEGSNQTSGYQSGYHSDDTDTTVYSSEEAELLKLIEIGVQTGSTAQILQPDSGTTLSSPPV

FGFR2 = molecular target: T2, FGFR2 (Homo sapiens, UniProt P21802); assay: HotSpot kinase screen; assay type: biochemical; details: 10μM ATP
T2 construct: purchased Reaction Biology Corporation (contract assay)
Experimental: (§1) Measurement of kinase activity was performed by Reaction Biology Corporation (Reaction Biology Corporation, Malvern, PA), using the HotSpot™ assay. The screen focused on RTKs reported in the literature to play a major role in the regulation of angiogenesis (VEGFR1, VEGFR2, and VEGFR3; fibroblast growth factor receptor [FGFR] 1, 2, and 3; and platelet-derived growth factor receptor beta [PDGFRβ]) as well as an RTK essential for maintaining blood vessel stability (TIE2). For the profiling, specific kinase/substrate pairs and required cofactors were prepared in a reaction buffer (20mM Hepes [pH 7.5], 10mM MgCl2, 1mM EGTA, 0.02% Brij35, 0.02 mg/mL BSA, 0.1mM Na3VO4, 2mM DTT, 1% dimethyl sulfoxide [DMSO]). TKI compounds were diluted to 10μM and 1μM concentrations for the screens and after addition to the reaction buffer incubated for 20 minutes, followed by the addition of a mixture of ATP (Sigma, St. Louis, MO) and ^33P-ATP (Perkin Elmer, Waltham, MA) to a final ATP concentration of 10μM. Reactions were carried out at room temperature for 2 hours, followed by spotting of the reactions onto P81 ion exchange filter paper (Whatman Inc., Piscataway, NJ). Unbound phosphate was removed by extensive washing of the filters. […] Kinome TREEspot images representing levels of inhibition were prepared using Kinome Mapper (https://www.reactionbiology.com/resources/tools/kinase-mapper).

VEGFR3 [2] = molecular target: T3, VEGFR3 (Homo sapiens, UniProt P35916); assay: HotSpot kinase screen; assay type: biochemical; details: 10μM ATP
T3 construct: purchased Millipore Corporation (Dundee, Scotland) or Reaction Biology Corporation (contract assay)
T3 sequence (P35916 25-1363): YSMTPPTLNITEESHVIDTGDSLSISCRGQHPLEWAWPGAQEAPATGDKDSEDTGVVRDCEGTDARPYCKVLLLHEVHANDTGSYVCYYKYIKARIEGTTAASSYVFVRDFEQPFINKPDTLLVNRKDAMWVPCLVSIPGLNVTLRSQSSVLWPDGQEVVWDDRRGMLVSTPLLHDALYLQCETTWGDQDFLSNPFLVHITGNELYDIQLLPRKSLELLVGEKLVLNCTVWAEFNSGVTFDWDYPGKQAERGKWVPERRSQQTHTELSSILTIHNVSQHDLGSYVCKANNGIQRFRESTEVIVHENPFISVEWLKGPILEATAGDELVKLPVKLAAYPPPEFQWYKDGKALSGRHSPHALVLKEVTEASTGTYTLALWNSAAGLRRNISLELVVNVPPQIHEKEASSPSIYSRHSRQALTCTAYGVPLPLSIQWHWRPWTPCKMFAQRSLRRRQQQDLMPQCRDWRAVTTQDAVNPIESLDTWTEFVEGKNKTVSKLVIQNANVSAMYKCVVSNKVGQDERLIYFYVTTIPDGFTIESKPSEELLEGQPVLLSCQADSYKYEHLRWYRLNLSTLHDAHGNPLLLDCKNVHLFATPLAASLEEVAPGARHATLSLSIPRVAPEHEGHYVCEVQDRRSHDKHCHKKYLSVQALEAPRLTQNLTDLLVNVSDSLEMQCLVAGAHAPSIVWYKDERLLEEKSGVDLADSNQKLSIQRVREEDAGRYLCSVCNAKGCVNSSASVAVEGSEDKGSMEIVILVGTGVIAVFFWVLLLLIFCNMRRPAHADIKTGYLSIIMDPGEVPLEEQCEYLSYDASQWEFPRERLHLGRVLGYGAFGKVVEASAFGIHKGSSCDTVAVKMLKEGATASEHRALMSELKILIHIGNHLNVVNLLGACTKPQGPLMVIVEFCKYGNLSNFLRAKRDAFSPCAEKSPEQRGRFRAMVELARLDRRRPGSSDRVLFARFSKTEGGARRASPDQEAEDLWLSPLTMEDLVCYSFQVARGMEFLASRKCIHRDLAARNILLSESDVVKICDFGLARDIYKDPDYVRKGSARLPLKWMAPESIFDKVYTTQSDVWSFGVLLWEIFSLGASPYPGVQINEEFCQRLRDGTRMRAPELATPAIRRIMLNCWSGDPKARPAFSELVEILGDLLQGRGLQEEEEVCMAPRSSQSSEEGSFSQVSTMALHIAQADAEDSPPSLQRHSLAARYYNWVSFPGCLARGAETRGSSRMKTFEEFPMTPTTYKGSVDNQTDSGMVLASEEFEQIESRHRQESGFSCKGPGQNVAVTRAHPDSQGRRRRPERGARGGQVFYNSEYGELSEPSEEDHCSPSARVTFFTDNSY
Experimental: as §1

VEGFR2 [3] = molecular target: T1, VEGFR2; assay: Ten-dose IC50 measurement; assay type: biochemical; details: 10μM ATP
VEGFR3 [4] = molecular target: T3, VEGFR3; assay: Ten-dose IC50 measurement; assay type: biochemical; details: 10μM ATP
[5] = tested on: VEGF-A–induced sprouting of HUVECs; assay: HUVEC spheroid sprouting assay; assay type: cell-based, human; details: for cumulative sprout length per spheroid (CSL), mean: 25 ng/mL VEGF-165, 24 hours
Experimental: The three TKI compounds were tested by Reaction Biology Europe (Freiburg, Germany) in the spheroid-based cellular angiogenesis assay to determine their effect on VEGF-A–induced sprouting of HUVECs. Primary HUVECs from pooled donors at passage 3 to 4 (PromoCell, Heidelberg, Germany) were grown in endothelial cell growth and basal medium (ECGM/ECBM, PromoCell). Test compounds were prepared as 100-fold concentrated stock solutions in DMSO and pre-diluted in basal medium. HUVECs were stimulated using 25 ng/mL VEGF-165 (Reaction Biology Europe, Freiburg, Germany) pre-diluted in basal medium.
Spheroids were prepared as described by pipetting 400 HUVECs in a hanging drop on plastic dishes to allow overnight spheroid aggregation. Fifty HUVEC spheroids were seeded in 0.9 mL of a collagen gel and pipetted into individual wells of a 24-well plate to allow polymerization. Test compounds and VEGF-165 were added after 30 minutes by pipetting 100 μL of a ten-fold concentrated solution onto the polymerized gel. Plates were incubated at 37°C for 24 hours, and cells were fixed by adding 4% paraformaldehyde (Roth, Karlsruhe, Germany). Sprouting intensity of HUVEC spheroids treated with the test samples was quantitated using an image analysis system to determine the cumulative sprout length (CSL) per spheroid. Images of single spheroids were captured using an inverted microscope and the digital imaging software NIS-Elements BR 3.0 (Nikon). Spheroid pictures were uploaded to Wimasis (www.wimasis.com) for image analysis. The CSL of each spheroid was determined using the imaging analysis tool WimSprout. The mean CSL of ten randomly selected spheroids was analyzed as an individual data point.

VEGFR1 [6] = molecular target: T4, VEGFR1 (Homo sapiens, UniProt P17948)
T4 sequence (P17948 27-1338): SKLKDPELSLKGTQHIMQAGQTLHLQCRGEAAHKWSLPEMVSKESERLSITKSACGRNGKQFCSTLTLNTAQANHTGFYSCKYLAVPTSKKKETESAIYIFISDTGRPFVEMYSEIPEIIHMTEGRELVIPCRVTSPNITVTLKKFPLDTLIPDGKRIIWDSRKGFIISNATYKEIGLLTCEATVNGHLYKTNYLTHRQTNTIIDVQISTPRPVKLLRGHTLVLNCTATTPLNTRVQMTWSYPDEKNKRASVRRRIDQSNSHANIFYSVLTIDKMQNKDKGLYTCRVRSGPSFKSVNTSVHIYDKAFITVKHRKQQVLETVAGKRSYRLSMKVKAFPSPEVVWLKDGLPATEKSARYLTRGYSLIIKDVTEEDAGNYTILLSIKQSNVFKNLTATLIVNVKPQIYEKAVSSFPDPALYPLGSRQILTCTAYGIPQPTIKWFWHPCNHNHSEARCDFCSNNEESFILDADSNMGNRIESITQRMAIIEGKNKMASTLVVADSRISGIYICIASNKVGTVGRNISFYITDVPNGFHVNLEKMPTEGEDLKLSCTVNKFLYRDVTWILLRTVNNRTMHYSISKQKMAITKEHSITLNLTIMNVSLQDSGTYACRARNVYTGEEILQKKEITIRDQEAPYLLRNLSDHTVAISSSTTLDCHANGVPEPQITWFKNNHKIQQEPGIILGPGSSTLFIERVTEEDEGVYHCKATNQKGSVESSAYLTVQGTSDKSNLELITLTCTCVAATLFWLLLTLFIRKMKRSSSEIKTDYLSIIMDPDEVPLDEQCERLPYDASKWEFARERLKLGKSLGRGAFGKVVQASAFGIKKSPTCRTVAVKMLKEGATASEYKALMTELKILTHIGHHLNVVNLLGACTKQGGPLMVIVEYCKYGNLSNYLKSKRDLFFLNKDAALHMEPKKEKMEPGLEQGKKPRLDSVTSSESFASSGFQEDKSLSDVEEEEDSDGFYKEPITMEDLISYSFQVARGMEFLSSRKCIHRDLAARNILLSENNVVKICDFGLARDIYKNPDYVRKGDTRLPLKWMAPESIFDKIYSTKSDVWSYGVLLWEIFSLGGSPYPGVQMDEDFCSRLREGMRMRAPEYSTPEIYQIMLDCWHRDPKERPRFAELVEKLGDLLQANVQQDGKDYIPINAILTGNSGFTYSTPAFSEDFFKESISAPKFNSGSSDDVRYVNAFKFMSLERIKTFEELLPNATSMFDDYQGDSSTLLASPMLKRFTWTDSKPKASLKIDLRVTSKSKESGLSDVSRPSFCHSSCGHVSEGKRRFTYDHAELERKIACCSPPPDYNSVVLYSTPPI

TIE2 [7] = molecular target: T5, TIE2 (Homo sapiens, UniProt Q02763)
T5 sequence (Q02763 23-1124): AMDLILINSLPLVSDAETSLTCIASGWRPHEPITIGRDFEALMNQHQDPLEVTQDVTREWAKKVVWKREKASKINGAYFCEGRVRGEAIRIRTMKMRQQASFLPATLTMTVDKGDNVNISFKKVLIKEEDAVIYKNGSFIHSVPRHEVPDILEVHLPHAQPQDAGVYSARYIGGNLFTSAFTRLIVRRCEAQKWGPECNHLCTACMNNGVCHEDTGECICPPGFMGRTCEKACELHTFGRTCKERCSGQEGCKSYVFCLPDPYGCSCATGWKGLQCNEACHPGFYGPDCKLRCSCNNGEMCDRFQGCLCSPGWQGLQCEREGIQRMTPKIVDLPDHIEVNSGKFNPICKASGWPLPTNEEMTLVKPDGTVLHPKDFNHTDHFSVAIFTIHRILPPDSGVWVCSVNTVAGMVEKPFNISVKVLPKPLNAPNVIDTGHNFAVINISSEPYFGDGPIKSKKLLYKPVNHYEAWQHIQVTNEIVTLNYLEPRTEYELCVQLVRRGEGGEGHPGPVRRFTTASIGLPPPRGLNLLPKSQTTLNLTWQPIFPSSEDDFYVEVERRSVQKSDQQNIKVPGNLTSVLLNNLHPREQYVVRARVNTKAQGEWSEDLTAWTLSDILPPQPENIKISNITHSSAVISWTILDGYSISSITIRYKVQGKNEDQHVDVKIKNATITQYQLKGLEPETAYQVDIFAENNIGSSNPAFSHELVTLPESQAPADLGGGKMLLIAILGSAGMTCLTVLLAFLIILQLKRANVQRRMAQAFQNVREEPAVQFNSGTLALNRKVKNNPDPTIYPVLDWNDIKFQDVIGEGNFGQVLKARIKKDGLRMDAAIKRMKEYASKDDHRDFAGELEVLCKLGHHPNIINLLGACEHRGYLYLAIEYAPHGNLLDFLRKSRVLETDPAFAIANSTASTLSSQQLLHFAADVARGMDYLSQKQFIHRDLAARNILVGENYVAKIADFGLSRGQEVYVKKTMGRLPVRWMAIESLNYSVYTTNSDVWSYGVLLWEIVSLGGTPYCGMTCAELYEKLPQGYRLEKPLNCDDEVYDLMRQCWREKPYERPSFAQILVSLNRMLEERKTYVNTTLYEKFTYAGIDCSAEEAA

VEGFR1 [8] = molecular target: T4, VEGFR1; assay: Ten-dose IC50 measurement; details: 10μM ATP
TIE2 [9] = molecular target: T5, TIE2; assay: Ten-dose IC50 measurement; details: 10μM ATP
TIE2 [10] = molecular target: T5, TIE2; assay: HotSpot kinase screen; assay type: biochemical; parameters: purchased Reaction Biology Corporation (contract assay); details: 10μM ATP
[11] = tested on: VEGF-induced angiogenesis on the CAM; assay: Gelatin sponge chick chorioallantoic membrane (CAM) assay
VEGFR1 [12] = molecular target: T4, VEGFR1; assay: HotSpot kinase screen; assay type: biochemical; parameters: purchased Millipore Corporation (Dundee, Scotland) or Reaction Biology Corporation (contract assay); details: 10μM ATP
Experimental: as §1

[13] = synthetic melanin, 0.06 to 25.0μM, 37°C, 1 hour, ± SEM

Avg % Inhibition VEGFR2 (VEGFR2 [1]; 1uM TKI): 100% | Avg % Inhibition VEGFR2 (VEGFR2 [1]; 10uM TKI): 90.96% | Avg % Inhibition FGFR2 (FGFR2; 1uM TKI): 93.95% | Avg % Inhibition FGFR2 (FGFR2; 10uM TKI): 98.81% | Avg % Inhibition VEGFR3 (VEGFR3 [2]; 1uM TKI): 97.27% | Avg % Inhibition VEGFR3 (VEGFR3 [2]; 10uM TKI): 99.21% | %Activity VEGFR2 (VEGFR2 [3]; 1.00E-05 M TKI): 7.43% | %Activity VEGFR2 (VEGFR2 [3]; 1.11E-06 M TKI): 4.53% | %Activity VEGFR2 (VEGFR2 [3]; 1.23E-07 M TKI): 7.10% | %Activity VEGFR2 (VEGFR2 [3]; 1.37E-08 M TKI): 13.24% | %Activity VEGFR2 (VEGFR2 [3]; 1.52E-09 M TKI): 62.16% | %Activity VEGFR2 (VEGFR2 [3]; 3.33E-06 M TKI): 6.81% | %Activity VEGFR2 (VEGFR2 [3]; 3.70E-07 M TKI): 7.21% | %Activity VEGFR2 (VEGFR2 [3]; 4.12E-08 M TKI): 8.44% | %Activity VEGFR2 (VEGFR2 [3]; 4.57E-09 M TKI): 25.12% | %Activity VEGFR2 (VEGFR2 [3]; 5.08E-10 M TKI): 84.02% | HillSlope VEGFR2 (VEGFR2 [3]; IC50 curve fit): -1.18 | %Activity VEGFR3 (VEGFR3 [4]; 1.00E-05 M TKI): 2.02% | %Activity VEGFR3 (VEGFR3 [4]; 1.11E-06 M TKI): 2.44% | %Activity VEGFR3 (VEGFR3 [4]; 1.37E-08 M TKI): 28.96% | %Activity VEGFR3 (VEGFR3 [4]; 1.52E-09 M TKI): 56.16% | %Activity VEGFR3 (VEGFR3 [4]; 3.33E-06 M TKI): 1.23% | %Activity VEGFR3 (VEGFR3 [4]; 3.70E-07 M TKI): 5.72% | %Activity VEGFR3 (VEGFR3 [4]; 4.57E-09 M TKI): 40.16% | %Activity VEGFR3 (VEGFR3 [4]; 5.08E-10 M TKI): 63.17% | activity (VEGFR1 [6]): 5.07% | activity (TIE2 [7]): 60.1% | %Activity VEGFR1 (VEGFR1 [8]; 1.00E-05 M TKI): -0.87% | %Activity VEGFR1 (VEGFR1 [8]; 1.11E-06 M TKI): -0.31% | %Activity VEGFR1 (VEGFR1 [8]; 1.37E-08 M TKI): 18.99% | %Activity VEGFR1 (VEGFR1 [8]; 1.52E-09 M TKI): 42.18% | %Activity VEGFR1 (VEGFR1 [8]; 3.33E-06 M TKI): -0.89% | %Activity VEGFR1 (VEGFR1 [8]; 4.12E-08 M TKI): 9.96% | %Activity VEGFR1 (VEGFR1 [8]; 4.57E-09 M TKI): 22.02% | %Activity VEGFR1 (VEGFR1 [8]; 5.08E-10 M TKI): 59.50% | %Activity TIE2 (TIE2 [9]; 1.00E-05 M TKI): 10.50% | %Activity TIE2 (TIE2 [9]; 1.11E-06 M TKI): 16.32% | %Activity TIE2 (TIE2 [9]; 1.37E-08 M TKI): 87.12% | %Activity TIE2 (TIE2 [9]; 1.52E-09 M TKI): 98.75% | %Activity TIE2 (TIE2 [9]; 3.33E-06 M TKI): 7.06% | %Activity TIE2 (TIE2 [9]; 3.70E-07 M TKI): 38.01% | %Activity TIE2 (TIE2 [9]; 4.12E-08 M TKI): 78.65% | %Activity TIE2 (TIE2 [9]; 4.57E-09 M TKI): 95.05% | %Activity TIE2 (TIE2 [9]; 5.08E-10 M TKI): 95.58% | Avg % Inhibition TIE2 (TIE2 [10]; 1uM TKI): 81% and 81.47% | Avg % Inhibition TIE2 (TIE2 [10]; 10uM TKI): 89% and 89.11% | Avg % Inhibition TIE2 (TIE2 [10]; 10uM TKI, listed as axitinib): up to 89% | Avg % Inhibition VEGFR1 (VEGFR1 [12]; 1uM TKI): 100% | Avg % Inhibition VEGFR1 (VEGFR1 [12]; 10uM TKI): 97.53%
Compound: CNC(=O)c1ccccc1Sc1ccc2c(/C=C/c3ccccn3)n[nH]c2c1 [Axitinib]
cumulative sprout length per spheroid (CSL), mean ([5]; 1.00E-05 M TKI): 259 | cumulative sprout length per spheroid (CSL), mean ([5]; 1.00E-06 M TKI): 441 | cumulative sprout length per spheroid (CSL), mean ([5]; 1.00E-07 M TKI): 459 | cumulative sprout length per spheroid (CSL), mean ([5]; 3.00E-06 M TKI): 354 | cumulative sprout length per spheroid (CSL), mean ([5]; 3.00E-07 M TKI): 373 | cumulative sprout length per spheroid (CSL), mean ([5]; 3.00E-08 M TKI): 379 | vessel sprouting (representative spheroid images) ([5]; highest test concentration of 1×10^–5M): zero vessel sprouting | Angiogenesis - Vessel number, Mean ([11]; TKI at 200 x VEGFR2 IC50): 11.1 | Angiogenesis - Vessel number, individual egg ([11]; TKI at 200 x VEGFR2 IC50, one value per egg): 9.33 and 12.67 and 12 and 10.33 | reduction of the number of blood vessels perfusing the sponges vs negative control ([11]; TKI at VEGFR2 IC50 dose): 24.6% | Angiogenesis - Vessel thickness score, Mean ([11]; TKI at VEGFR2 IC50 dose, score 0-3): 0.9 | Angiogenesis - Vessel thickness score, individual egg ([11]; TKI at VEGFR2 IC50 dose, score 0-3, one value per egg): 0.33 and 1.33 and 0 and 1.67

Kd [13]: 3.06 ± 0.6 µM
Compound: CCN(CC)CCCC(C)Nc1ccnc2cc(Cl)ccc12 (centres unmarked) [Chloroquine]
